Assays:
[1] = target: PKNB(M.tuberculosis) (Mycobacterium tuberculosis, UniProt P9WI81); test: biochemical; details: read-out: %Ctrl @ 1000nM
[2] = target: CDK11 (Homo sapiens, UniProt Q9BWU1); test: KINOMEscan binding constant, CDK11; details: read-out: Binding affinity (Kd, nM) CDK11
[3] = Pharmacokinetics study in SD rats; type: in vivo; details: male, Sprague-Dawley, rat, whole blood, iv, 4 mg/kg, read-out: CL (L/hr/kg) in rats (converted)
[4] = target: T1, PFPK5(P.falciparum) (Plasmodium falciparum, UniProt P61075); test: biochemical; details: competition binding; read-out: %Ctrl @ 1000nM
T1 construct: gene CRK2

[5] = target: T2, PFCDPK1(P.falciparum) (Plasmodium falciparum, UniProt P62344); test: biochemical; details: competition binding; read-out: %Ctrl @ 1000nM
T2 construct: gene CDPK1

[6] = target: ABL1(F317L)-nonphosphorylated (Homo sapiens, UniProt P00519, F317L); test: biochemical; details: read-out: %Ctrl @ 1000nM
[7] = target: HASPIN (Homo sapiens, UniProt Q8TF76); test: biochemical; details: read-out: %Ctrl @ 1000nM
[8] = target: EGFR(T790M) (Homo sapiens, UniProt P00533, T790M); test: biochemical; details: read-out: %Ctrl @ 1000nM
Chain of EGFR(T790M) (P00533 whole entry T790M): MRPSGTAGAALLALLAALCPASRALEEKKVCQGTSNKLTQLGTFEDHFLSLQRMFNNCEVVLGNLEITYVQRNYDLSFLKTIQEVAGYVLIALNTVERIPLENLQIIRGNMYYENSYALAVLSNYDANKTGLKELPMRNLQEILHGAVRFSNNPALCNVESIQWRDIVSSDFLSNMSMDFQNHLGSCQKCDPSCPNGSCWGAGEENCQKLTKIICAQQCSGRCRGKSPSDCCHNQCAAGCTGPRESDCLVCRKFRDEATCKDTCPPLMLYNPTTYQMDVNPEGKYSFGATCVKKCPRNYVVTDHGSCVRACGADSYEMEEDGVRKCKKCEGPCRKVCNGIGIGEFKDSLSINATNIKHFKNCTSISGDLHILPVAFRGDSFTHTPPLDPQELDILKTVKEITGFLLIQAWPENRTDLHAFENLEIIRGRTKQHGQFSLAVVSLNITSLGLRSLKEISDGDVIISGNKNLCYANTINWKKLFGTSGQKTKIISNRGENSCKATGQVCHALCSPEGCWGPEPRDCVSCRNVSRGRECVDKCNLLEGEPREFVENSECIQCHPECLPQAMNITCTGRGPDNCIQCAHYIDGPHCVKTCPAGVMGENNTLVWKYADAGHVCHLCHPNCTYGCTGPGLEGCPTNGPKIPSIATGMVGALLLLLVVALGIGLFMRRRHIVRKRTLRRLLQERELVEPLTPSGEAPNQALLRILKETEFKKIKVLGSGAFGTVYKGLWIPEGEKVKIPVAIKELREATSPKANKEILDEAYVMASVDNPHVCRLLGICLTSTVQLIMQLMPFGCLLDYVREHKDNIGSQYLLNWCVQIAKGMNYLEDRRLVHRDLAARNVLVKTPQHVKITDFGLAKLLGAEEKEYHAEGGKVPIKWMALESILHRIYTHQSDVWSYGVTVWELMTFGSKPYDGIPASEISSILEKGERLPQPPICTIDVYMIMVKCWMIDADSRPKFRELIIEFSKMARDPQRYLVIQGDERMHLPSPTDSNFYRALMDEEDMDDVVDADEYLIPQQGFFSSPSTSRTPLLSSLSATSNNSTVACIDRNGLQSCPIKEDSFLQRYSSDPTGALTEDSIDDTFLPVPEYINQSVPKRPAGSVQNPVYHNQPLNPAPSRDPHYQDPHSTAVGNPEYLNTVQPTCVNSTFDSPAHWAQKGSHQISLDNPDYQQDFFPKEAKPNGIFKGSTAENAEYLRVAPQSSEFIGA

Chain of ABL1(F317L)-nonphosphorylated (P00519 whole entry F317L): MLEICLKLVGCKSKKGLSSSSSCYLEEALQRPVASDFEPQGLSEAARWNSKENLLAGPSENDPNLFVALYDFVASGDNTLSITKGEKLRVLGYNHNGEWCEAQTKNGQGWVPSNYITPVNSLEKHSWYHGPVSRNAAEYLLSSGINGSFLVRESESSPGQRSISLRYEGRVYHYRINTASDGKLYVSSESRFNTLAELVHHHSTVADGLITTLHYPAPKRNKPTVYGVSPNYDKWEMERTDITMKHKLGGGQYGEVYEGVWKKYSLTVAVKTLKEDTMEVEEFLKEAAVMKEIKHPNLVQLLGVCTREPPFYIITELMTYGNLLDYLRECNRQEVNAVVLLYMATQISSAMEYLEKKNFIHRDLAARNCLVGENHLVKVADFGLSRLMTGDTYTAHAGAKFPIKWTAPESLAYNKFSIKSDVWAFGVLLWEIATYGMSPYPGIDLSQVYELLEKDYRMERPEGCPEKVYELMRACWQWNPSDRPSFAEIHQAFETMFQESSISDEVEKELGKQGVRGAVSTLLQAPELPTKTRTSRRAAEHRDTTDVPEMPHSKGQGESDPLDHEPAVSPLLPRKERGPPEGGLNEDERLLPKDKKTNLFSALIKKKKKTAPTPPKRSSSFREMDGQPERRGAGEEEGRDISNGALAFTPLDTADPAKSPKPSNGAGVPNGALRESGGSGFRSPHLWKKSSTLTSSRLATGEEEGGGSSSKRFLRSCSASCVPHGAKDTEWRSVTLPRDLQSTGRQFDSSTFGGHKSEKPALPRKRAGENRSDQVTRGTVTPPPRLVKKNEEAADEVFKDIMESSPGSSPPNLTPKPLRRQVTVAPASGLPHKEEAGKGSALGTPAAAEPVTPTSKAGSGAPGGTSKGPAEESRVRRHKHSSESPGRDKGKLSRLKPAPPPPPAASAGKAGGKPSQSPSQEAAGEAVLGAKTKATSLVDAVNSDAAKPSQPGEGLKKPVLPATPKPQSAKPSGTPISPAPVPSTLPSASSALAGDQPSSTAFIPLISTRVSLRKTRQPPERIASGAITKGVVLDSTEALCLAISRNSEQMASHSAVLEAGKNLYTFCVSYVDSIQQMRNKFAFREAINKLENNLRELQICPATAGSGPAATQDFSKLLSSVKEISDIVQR
Chain of PKNB(M.tuberculosis) (P9WI81 whole entry, looked up): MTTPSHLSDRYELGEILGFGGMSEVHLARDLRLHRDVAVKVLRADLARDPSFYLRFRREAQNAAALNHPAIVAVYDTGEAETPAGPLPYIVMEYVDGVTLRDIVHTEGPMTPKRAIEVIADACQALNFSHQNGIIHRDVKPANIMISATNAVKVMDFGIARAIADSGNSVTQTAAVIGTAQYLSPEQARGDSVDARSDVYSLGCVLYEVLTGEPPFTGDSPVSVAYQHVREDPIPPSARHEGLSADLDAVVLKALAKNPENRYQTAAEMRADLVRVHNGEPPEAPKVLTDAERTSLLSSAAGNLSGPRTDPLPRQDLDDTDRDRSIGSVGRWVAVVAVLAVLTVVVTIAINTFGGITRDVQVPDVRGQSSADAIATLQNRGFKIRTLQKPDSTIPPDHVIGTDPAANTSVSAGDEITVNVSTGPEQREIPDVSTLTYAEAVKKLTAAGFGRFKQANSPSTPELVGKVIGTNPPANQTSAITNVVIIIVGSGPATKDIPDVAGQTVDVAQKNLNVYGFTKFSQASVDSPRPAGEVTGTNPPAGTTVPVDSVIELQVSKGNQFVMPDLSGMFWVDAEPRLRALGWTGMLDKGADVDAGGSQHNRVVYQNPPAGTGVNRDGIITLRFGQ
Chain of HASPIN (Q8TF76 whole entry): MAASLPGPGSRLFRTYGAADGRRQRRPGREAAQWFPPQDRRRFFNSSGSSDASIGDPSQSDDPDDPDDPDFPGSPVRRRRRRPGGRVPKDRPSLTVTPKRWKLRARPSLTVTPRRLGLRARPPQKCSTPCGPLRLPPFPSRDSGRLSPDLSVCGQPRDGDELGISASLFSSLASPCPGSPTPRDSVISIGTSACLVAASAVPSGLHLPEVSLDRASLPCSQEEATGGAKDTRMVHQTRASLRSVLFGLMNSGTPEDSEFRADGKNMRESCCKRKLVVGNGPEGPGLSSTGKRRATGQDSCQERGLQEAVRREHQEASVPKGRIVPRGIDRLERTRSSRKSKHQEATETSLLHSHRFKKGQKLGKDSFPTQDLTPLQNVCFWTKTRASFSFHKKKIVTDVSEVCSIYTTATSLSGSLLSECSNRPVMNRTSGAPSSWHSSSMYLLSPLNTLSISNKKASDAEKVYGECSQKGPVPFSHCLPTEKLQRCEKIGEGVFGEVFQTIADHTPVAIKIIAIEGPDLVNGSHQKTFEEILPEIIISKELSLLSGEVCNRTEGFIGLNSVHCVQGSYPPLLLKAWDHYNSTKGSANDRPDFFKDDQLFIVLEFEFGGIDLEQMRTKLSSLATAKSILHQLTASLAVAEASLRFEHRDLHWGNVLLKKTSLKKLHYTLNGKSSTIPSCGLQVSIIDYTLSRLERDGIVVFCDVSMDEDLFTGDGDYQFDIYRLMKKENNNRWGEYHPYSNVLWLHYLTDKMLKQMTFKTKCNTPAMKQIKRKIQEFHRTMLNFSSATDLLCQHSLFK
T2 sequence (P62344 whole entry): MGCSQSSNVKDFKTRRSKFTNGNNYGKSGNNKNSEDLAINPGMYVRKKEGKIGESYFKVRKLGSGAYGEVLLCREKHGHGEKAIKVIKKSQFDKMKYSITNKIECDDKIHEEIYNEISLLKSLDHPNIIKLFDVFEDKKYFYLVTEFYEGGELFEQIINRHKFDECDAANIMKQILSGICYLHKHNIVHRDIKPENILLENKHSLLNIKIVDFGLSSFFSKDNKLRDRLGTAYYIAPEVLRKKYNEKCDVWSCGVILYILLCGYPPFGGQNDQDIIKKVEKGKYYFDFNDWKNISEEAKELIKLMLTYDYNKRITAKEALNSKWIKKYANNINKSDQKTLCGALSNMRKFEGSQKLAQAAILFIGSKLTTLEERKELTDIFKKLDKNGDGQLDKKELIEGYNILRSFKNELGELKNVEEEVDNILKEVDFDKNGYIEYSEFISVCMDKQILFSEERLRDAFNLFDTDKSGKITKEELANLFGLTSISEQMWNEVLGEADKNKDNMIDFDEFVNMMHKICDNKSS
Chain of CDK11 (Q9BWU1 whole entry): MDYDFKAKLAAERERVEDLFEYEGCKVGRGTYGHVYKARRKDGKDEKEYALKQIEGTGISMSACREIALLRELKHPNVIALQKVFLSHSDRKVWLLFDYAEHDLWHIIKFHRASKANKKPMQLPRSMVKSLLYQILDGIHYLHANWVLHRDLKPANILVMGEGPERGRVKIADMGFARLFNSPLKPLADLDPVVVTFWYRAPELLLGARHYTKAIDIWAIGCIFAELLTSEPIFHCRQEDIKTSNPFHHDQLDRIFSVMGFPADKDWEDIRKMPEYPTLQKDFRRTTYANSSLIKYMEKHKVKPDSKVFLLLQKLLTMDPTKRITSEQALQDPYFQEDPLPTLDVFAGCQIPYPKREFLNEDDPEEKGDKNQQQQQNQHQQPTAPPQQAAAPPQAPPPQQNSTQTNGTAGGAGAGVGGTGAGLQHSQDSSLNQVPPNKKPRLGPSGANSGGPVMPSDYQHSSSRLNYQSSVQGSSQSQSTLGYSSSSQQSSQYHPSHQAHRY
T1 sequence (P61075 whole entry): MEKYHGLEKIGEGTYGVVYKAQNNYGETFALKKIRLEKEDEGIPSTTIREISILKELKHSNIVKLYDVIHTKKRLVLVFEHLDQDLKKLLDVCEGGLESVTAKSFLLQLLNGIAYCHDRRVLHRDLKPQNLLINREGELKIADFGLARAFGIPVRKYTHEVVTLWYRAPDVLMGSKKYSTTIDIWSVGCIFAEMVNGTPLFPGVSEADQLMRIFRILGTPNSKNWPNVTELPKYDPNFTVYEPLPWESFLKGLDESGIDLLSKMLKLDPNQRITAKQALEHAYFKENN

remaining binding at 1 µM [1]: 100% | Kd [2]: 370 nM | clearance [3]: 17.6 L/h/kg | remaining binding at 1 µM [4]: 100% | remaining binding at 1 µM [5]: 93% | remaining activity at 1 µM [6]: 38% | remaining activity at 1 µM [7]: 100% | remaining activity at 1 µM [8]: 100%
SMILES: Cc1cn(-c2cc(NC(=O)c3ccc4c(c3)CN(c3cncnc3)C[C@@H]4C)cc(C(F)(F)F)c2)cn1 [Compound 6j]
